Assay results taken from patent publication US10357431B2, “Process for the preparation of a pharmaceutical composition comprising a low soluble pharmaceutically active ingredient” (Lek Pharmaceuticals d.d., priority 2010, dated 2019).
Like-named read-outs stand apart in the source and are kept apart here.

How the values were obtained:
[1] = Particle size distribution of ezetimibe (laser diffraction, e.g. Malvern); type: physicochemical
Excerpt: In a particularly exemplified embodiment according to the present invention, the particle size distribution d(0.5) that is present after step (b) and prior to step (c), after step (c) and prior to step (d), and/or after step (d), corresponds essentially to or is smaller than the primary particle size distribution d(0.5) of the API that is used for providing the suspension of step (a). This (further) contributes to a further improved pharmaceutical composition or dosage form, respectively, as e.g. the dissolution profile and controllability are further enhanced. In general, the particle size distribution of a powder, or granular material, or particles e.g. dispersed in fluid, is a list of values or a mathematical function that defines the relative amounts of particles present, sorted according to size. The nomenclature describing the particle size distribution is herein referred to as “d(0.5)”. For example, a d(0.5) of 5 μm means that 50% (by volume) of the particles have a size less than or equal to 5 μm, as tested by any conventional method such as laser diffraction method (e.g. laser diffraction Malvern). When measuring the particle size distribution by laser diffraction Malvern, an appropriate amount of sample (usually a few drops of suspension) is put into a gently mixing chamber filled with water. From this chamber, the sample continuously flows through a measuring chamber and the particle size distribution is determined by laser diffraction. Within the meaning of the present invention, the term “particle size distribution d(0.5) corresponds essentially to or is smaller than” denotes that (i) the particle size distribution d(0.5) of the primary particles when measured after deagglomeration, i.e. after the high energy input treatment has been applied to the suspension containing the API particles, essentially corresponds to the particle size distribution d(0.5) of the primary particles that were used for providing the suspension of step (a); or (ii), alternatively, it denotes that the particle size distribution d(0.5) when measured after deagglomeration is smaller than the particle size distribution d(0.5) of the primary particles that were used for providing the suspension of step (a).
The particle size distribution d(0.5) of the primary API particles used for providing the suspension of step (a) in (A), (B) and (C) can be assessed by any method that is known to a person skilled in the art, such as by using laser diffraction method (e.g. Malvern Mastersizer, see above). As described elsewhere herein, said primary API particles may be present deagglomerated, however said particles may also be present in an agglomerated state. In the latter case, it is also possible to determine the particle size distribution d(0.5) by laser diffraction. If appropriate, it is preferred that the method for carrying out the first measurement corresponds to the method used for carrying out the second measurement.
The method according to the present invention is particularly useful for processing API particles having a particle size distribution d(0.5) that is relatively small, e.g. a particle size distribution d(0.5) where agglomeration is generated (critical particle size/particle size distribution). The critical particle size/particle size distribution for a selected API is known to a person skilled in the art. Further, said size/size distribution can be determined by any suitable method that is known to a person skilled in the art, such as by using SEM or laser diffraction. Usually SEM or more preferably disintegrated tablet suspension is recorded under a visual microscope and is processed with particle recognition software to obtain an estimation of particle size distribution. On SEM pictures, eventually occurring agglomerates are also visible. When using laser diffraction, a suspension of the API is transferred to the dispersing chamber containing water. […]

[2] = cited from earlier work
[3] = Example 3, Table 1, particle size after deagglomeration (suspension passed through ball mill)
[4] = Example 3, Table 1, starting particle size
[5] = Example 4, Table 2, particle size after deagglomeration (high energy rotor-stator mixer)
[6] = Example 4, Table 2, starting particle size
[7] = Example 6, Table 3, particle size after milling (rotor-stator mixer, then ball mill)
[8] = Example 6, Table 3, starting particle size
[9] = Example 7, Table 4, particle size after milling (rotor-stator mixer, then ball mill)
[10] = Example 7, Table 4, starting particle size

Structure (SMILES): O=C1[C@H](CC[C@H](O)c2ccc(F)cc2)[C@@H](c2ccc(O)cc2)N1c1ccc(F)cc1 [ezetimibe]
- size below which 50% of micronized ezetimibe particles were ([1]; Comparative Example 5, micronized starting ezetimibe): 3.9 micrometers
- D(0.1) [1, 3]: 0.84 μm
- D(0.5) [1, 3]: 2.98 μm
- D(0.9) [1, 3]: 6.28 μm
- D(0.1) [1, 4]: 0.30 μm
- D(0.5) [1, 4]: 2.97 μm
- D(0.9) [1, 4]: 6.87 μm
- change of particle size distribution d(0.5) ([1]; Example 3, suspension passed through a ball mill): remained essentially unchanged
- D(0.1) [1, 5]: 0.83 μm
- D(0.5) [1, 5]: 2.54 μm
- D(0.9) [1, 5]: 5.03 μm
- D(0.1) [1, 6]: 0.30 μm
- D(0.5) [1, 6]: 2.97 μm
- D(0.9) [1, 6]: 6.87 μm
- change of particle size distribution d(0.5) ([1]; Example 4, suspension mixed with high energy rotor-stator mixer): remained unchanged
- D(0.1) [1, 7]: 0.24 μm
- D(0.5) [1, 7]: 1.11 μm
- D(0.9) [1, 7]: 4.35 μm
- D(0.1) [1, 8]: 0.82 μm
- D(0.5) [1, 8]: 3.29 μm
- D(0.9) [1, 8]: 6.49 μm
- D(0.1) [1, 9]: 0.63 μm
- D(0.5) [1, 9]: 1.99 μm
- D(0.9) [1, 9]: 5.49 μm
- D(0.1) [1, 10]: 0.83 μm
- D(0.5) [1, 10]: 2.76 μm
- D(0.9) [1, 10]: 5.19 μm
- solubility ([2]; in ethanol, methanol, and acetone): freely to very soluble
- solubility ([2]; in water): particularly poorly soluble
